For series [1], the target named is Protein cereblon (Homo sapiens) (UniProt Q96SW2). Briefly: Binding affinity to CRBN (unknown origin) at 10 uM relative to control.
Series [2] has as its target T1, Protein cereblon/Eukaryotic peptide chain release factor GTP-binding subunit ERF3A (Homo sapiens, UniProt Q96SW2+P15170). The experiment in a line: Molecular glue activity at human full length wild type CRBN/Hibit tagged GSPT1 in human Jurkat cells assessed as induction of GSPT1 degradation. The series is classed as cell-based.
Target sequence in this assay (Q96SW2 whole entry): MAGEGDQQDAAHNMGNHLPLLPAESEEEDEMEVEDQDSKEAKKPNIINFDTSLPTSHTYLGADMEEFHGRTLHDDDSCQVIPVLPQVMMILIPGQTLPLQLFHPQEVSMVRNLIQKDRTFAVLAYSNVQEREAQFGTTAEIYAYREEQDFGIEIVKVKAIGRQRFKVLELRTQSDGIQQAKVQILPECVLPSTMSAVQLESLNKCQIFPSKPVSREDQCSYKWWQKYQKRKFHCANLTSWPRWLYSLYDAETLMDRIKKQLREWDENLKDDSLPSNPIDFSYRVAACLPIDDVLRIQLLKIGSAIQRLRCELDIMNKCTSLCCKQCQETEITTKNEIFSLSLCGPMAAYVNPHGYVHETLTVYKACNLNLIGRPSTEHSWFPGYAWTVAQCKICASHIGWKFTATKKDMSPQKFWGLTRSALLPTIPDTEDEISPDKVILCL
Target sequence in this assay (P15170 whole entry): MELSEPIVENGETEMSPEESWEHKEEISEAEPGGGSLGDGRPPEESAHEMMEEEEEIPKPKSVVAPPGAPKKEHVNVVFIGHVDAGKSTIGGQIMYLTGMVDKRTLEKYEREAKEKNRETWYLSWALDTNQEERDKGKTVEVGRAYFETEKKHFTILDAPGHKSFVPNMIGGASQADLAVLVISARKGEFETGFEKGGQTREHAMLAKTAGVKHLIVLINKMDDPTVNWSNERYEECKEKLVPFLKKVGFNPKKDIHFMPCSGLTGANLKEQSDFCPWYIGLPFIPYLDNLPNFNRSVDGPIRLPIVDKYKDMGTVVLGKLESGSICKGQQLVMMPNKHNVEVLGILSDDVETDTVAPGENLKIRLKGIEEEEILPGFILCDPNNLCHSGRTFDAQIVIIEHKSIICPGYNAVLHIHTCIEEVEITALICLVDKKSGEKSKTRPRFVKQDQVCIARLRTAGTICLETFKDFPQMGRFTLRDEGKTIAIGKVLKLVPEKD
The target of series [3] is Protein cereblon/Eukaryotic peptide chain release factor GTP-binding subunit ERF3A (Homo sapiens, UniProt P15170+Q96SW2). The experiment in a line: Molecular glue activity at LgBiT tagged CRBN/SmBiT tagged GSPT1 (unknown origin) transfected with HEK293T cells assessed as ternary complex formation incubated for 1 hr by Nano-Glo luminescence analysis. The class given is cell-based.

A short description of series [4]: Cytotoxicity against HEK293T cells assessed as cell growth inhibition measured after 72 hrs by CellTiter-Glo assay. The class given is toxicity, cell-based, HEK-293T. The conditions noted are these: human. A general note: ATP-based viability assays read luminescence as a measure of living cells.
The nature of series [5]: Cytotoxicity against HEK293T cells assessed as cell growth inhibition measured after 72 hrs in presence of MLN4924 by CellTiter-Glo assay. The class given is toxicity, cell-based, HEK-293T. The conditions noted are these: human.
Series [6] concerns Jurkat. Briefly: Cytotoxicity against human Jurkat cells assessed as cell growth inhibition measured after 72 hrs by CellTiter-Glo assay. The series is classed as functional.
Series [7] is described as follows: Cytotoxicity against human Jurkat cells assessed as cell growth inhibition measured after 72 hrs in presence of MLN4924 by CellTiter-Glo assay. The class given is toxicity, cell-based.
A further series has as its system MCF7. The experiment in a line: Selectivity ratio of GI50 for cytotoxicity against human MCF7 cells assessed as cell growth inhibition measured after 72 hrs in presence of MLN4924 to GI50 for cytotoxicity against human MCF7 cells assessed as cell growth inhibition measured after 72 hrs. The series is classed as functional.
The nature of series [8]: Selectivity ratio of GI50 for cytotoxicity against human HCT-116 cells assessed as cell growth inhibition measured after 72 hrs in presence of MLN4924 to GI50 for cytotoxicity against human HCT-116 cells assessed as cell growth inhibition measured after 72 hrs. The class given is functional.
The nature of series [9]: Selectivity ratio of GI50 for cytotoxicity against human MIA PaCa-2 cells assessed as cell growth inhibition measured after 72 hrs in presence of MLN4924 to GI50 for cytotoxicity against human MIA PaCa-2 cells assessed as cell growth inhibition measured after 72 hrs. The class given is functional.
The target in series [10] is T1, Protein cereblon/Eukaryotic peptide chain release factor GTP-binding subunit ERF3A. The experiment in a line: Molecular glue activity at full length human wild type CRBN/HiBit tagged GSPT1 in HEK293T cells assessed as induction of GSPT1 degradation at 1 uM incubated for 12 hrs by Western blot analysis. The series is classed as cell-based.
Target sequence in this assay (P15170 whole entry, looked up): as the sequence (P15170 whole entry) above
Target sequence in this assay (Q96SW2 whole entry, looked up): as the sequence (Q96SW2 whole entry) above
For series [11] the target is unchanged. The experiment in a line: Molecular glue activity at full length human wild type CRBN/HiBit tagged GSPT1 in HEK293T cells assessed as induction of GSPT1 degradation at 0.1 to 10 uM incubated for 6 hrs by Western blot analysis. The conditions noted are these: dose 0.1-10 µM. The class given is cell-based. For orientation: The HiBiT peptide binds its large partner to form an active luciferase.
Target sequence in this assay (P15170 whole entry, looked up): as the sequence (P15170 whole entry) above
Target sequence in this assay (Q96SW2 whole entry, looked up): as the sequence (Q96SW2 whole entry) above

Series [12] has the same target. Briefly: Molecular glue activity at full length human wild type CRBN/HiBit tagged GSPT1 in human KG-1 cells assessed as induction of GSPT1 degradation at 0.1 to 10 uM incubated for 6 hrs by Western blot analysis. The series is classed as cell-based. The conditions noted are these: dose 0.1-10 µM.
Target sequence in this assay (P15170 whole entry, looked up): as the sequence (P15170 whole entry) above
Target sequence in this assay (Q96SW2 whole entry, looked up): as the sequence (Q96SW2 whole entry) above
Series [13] has the same target. Briefly: Molecular glue activity at full length wild type human CRBN/HiBit tagged GSPT1 in human Jurkat cells assessed as induction of GSPT1 degradation at 3 uM incubated for 6 hrs by Western blot analysis. The series is classed as cell-based.
Target sequence in this assay (P15170 whole entry, looked up): as the sequence (P15170 whole entry) above
Target sequence in this assay (Q96SW2 whole entry, looked up): as the sequence (Q96SW2 whole entry) above
The target in series [14] is T2, Protein cereblon/Eukaryotic peptide chain release factor GTP-binding subunit ERF3B (Homo sapiens, UniProt Q96SW2+Q8IYD1). Briefly: Molecular glue activity at full length human wild type CRBN/GSPT2 in human Jurkat cells assessed as induction of GSPT2 degradation at 3 uM incubated for 6 hrs by Western blot analysis. The series is classed as cell-based. On the technique in general: A western blot detects proteins with antibodies after separation by electrophoresis.
Target sequence in this assay (Q8IYD1 whole entry, looked up): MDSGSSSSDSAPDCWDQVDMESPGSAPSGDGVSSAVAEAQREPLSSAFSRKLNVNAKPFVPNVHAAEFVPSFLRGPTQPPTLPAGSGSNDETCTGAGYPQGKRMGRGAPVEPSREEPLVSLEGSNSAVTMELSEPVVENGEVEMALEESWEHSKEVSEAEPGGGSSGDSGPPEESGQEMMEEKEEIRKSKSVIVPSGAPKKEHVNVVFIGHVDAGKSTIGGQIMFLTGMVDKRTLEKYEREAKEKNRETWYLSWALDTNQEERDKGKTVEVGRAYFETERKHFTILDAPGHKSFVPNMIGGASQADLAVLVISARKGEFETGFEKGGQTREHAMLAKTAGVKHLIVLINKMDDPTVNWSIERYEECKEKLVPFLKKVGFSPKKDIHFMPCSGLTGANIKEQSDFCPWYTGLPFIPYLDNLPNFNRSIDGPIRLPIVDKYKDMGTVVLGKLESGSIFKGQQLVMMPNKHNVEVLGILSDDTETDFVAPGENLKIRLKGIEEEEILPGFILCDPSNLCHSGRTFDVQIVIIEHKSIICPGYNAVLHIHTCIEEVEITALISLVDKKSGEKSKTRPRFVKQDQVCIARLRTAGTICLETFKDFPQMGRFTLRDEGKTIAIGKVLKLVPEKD
Target sequence in this assay (Q96SW2 whole entry, looked up): as the sequence (Q96SW2 whole entry) above

Series [15] deals with T1, Protein cereblon/Eukaryotic peptide chain release factor GTP-binding subunit ERF3A. The experiment in a line: Molecular glue activity at full length human wild type CRBN/HiBit tagged GSPT1 in human Jurkat cells assessed as induction of GSPT1 degradation incubated for 6 hrs by Western blot analysis. The series is classed as cell-based.
Target sequence in this assay (Q96SW2 whole entry): as above
Target sequence in this assay (P15170 whole entry): as the sequence (P15170 whole entry) above
The target in series [16] is T2, Protein cereblon/Eukaryotic peptide chain release factor GTP-binding subunit ERF3B. The experiment in a line: Molecular glue activity at full length human wild type CRBN/GSPT2 in human Jurkat cells assessed as induction of GSPT2 degradation incubated for 6 hrs by Western blot analysis. The series is classed as cell-based.
For series [17], the target named is T1, Protein cereblon/Eukaryotic peptide chain release factor GTP-binding subunit ERF3A. Briefly: Molecular glue activity at full length wild type human CRBN/HiBit tagged GSPT1 in human Jurkat cells harbouring cullin4 knockdown assessed as induction of GSPT1 degradation at 1 uM incubated for 6 hrs by Western blot analysis. The class given is cell-based.
Target sequence in this assay (P15170 whole entry, looked up): as the sequence (P15170 whole entry) above
Target sequence in this assay (Q96SW2 whole entry, looked up): as the sequence (Q96SW2 whole entry) above
The subject of series [18] is Jurkat. The experiment in a line: Cytotoxicity against human Jurkat cells harbouring cullin4 knockdown assessed as cell growth inhibition measured after 72 hrs by CellTiter-Glo assay. The class given is functional.
In series [19] the target is T1, Protein cereblon/Eukaryotic peptide chain release factor GTP-binding subunit ERF3A. The experiment in a line: Molecular glue activity at full length human wild type CRBN/HiBit tagged GSPT1 in human Jurkat cells assessed as induction of GSPT1 degradation at 0.1 to 10 uM incubated for 6 hrs in presence of bortezomib by Western blot analysis. The series is classed as cell-based. The conditions noted are these: dose 0.1-10 µM.
Target sequence in this assay (P15170 whole entry, looked up): as the sequence (P15170 whole entry) above
Target sequence in this assay (Q96SW2 whole entry, looked up): as the sequence (Q96SW2 whole entry) above

The target of series [20] is T2, Protein cereblon/Eukaryotic peptide chain release factor GTP-binding subunit ERF3B. The experiment in a line: Molecular glue activity at full length human wild type CRBN/HiBit tagged GSPT2 in human Jurkat cells assessed as induction of GSPT2 degradation at 0.1 to 10 uM incubated for 6 hrs in presence of bortezomib by Western blot analysis. The series is classed as cell-based. The conditions noted are these: dose 0.1-10 µM.
Target sequence in this assay (Q8IYD1 whole entry, looked up): as the sequence (Q8IYD1 whole entry, looked up) above
Target sequence in this assay (Q96SW2 whole entry, looked up): as the sequence (Q96SW2 whole entry) above

For series [21], the target named is Protein cereblon (Homo sapiens) (UniProt Q96SW2). The experiment in a line: Binding affinity to CRBN in HEK293T cells harbouring DDB1/Nanoluc assessed as decrease in BRET ratio incubated for 2 hrs NanoBRET engagement assay. The class given is cell-based. The conditions noted are these: dose 1-30 µM.
Series [22] concerns the target T1, Protein cereblon/Eukaryotic peptide chain release factor GTP-binding subunit ERF3A. The experiment in a line: Molecular glue activity at full length human wild type CRBN/HiBit tagged GSPT1 in HEK293T cells assessed as induction of GSPT1 degradation incubated for 6 hrs by Nano-Glo luminescence assay. The series is classed as cell-based.
Target sequence in this assay (Q96SW2 whole entry): as above
Target sequence in this assay (P15170 whole entry): as the sequence (P15170 whole entry) above
Series [23] shares this target. Briefly: Molecular glue activity at full length human wild type CRBN/HiBit tagged GSPT1 in HEK293T cells assessed as induction of GSPT1 degradation incubated for 6 hrs in presence of pomalidomide by Nano-Glo luminescence assay. The series is classed as cell-based.
Target sequence in this assay (Q96SW2 whole entry): as the sequence (Q96SW2 whole entry) above
Target sequence in this assay (P15170 whole entry): as the sequence (P15170 whole entry) above
Series [24] shares this target. The experiment in a line: Molecular glue activity at full length human wild type CRBN/HiBit tagged GSPT1 in HEK293T cells assessed as induction of GSPT1 degradation at 10 uM incubated for 6 hrs by Nano-Glo luminescence assay relative to control. The class given is cell-based.
Series [25] has the same target. Briefly: Molecular glue activity at full length human wild type CRBN/HiBit tagged GSPT1 in HEK293T cells assessed as induction of GSPT1 degradation at 10 uM incubated for 6 hrs in presence of pomalidomide by Nano-Glo luminescence assay relative to control. The class given is cell-based.
The target of series [26] is Protein cereblon/Eukaryotic peptide chain release factor GTP-binding subunit ERF3A (Mus musculus) (UniProt Q8C7D2+Q8R050). The experiment in a line: Molecular glue activity at Wild type CRBN/GSPT1 in mouse MEF cells harbouring CRBN knockout assessed as induction of GSPT1 degradation at 0.1 to 10 uM incubated for 24 hrs by Western blot analysis. The class given is cell-based. The conditions noted are these: dose 0.1-10 µM.

A further series concerns MEF. The experiment in a line: Molecular glue activity at CRBN W386A mutant/GSPT1 in mouse MEF cells harbouring CRBN knockout assessed as induction of GSPT1 degradation at 0.1 to 10 uM incubated for 24 hrs by Western blot analysis. The conditions noted are these: dose 0.1-10 µM. The class given is cell-based.
Series [27] has as its target T1, Protein cereblon/Eukaryotic peptide chain release factor GTP-binding subunit ERF3A. Briefly: Molecular glue activity at full length wild type CRBN/HiBit tagged GSPT1 in human Jurkat cells harbouring wildtype CRBN assessed as induction of GSPT1 degradation at 0.1 to 10 uM incubated for 6 hrs by Western blot analysis. The class given is cell-based. The conditions noted are these: dose 0.1-10 µM.

The target is the same in series [28]. The experiment in a line: Molecular glue activity at full length wild type CRBN/HiBit tagged GSPT1 in human Jurkat cells harbouring CRBN knockout assessed as induction of GSPT1 degradation at 0.1 to 10 uM incubated for 6 hrs by Western blot analysis. The conditions noted are these: dose 0.1-10 µM. The class given is cell-based.
Series [29] has as its target T2, Protein cereblon/Eukaryotic peptide chain release factor GTP-binding subunit ERF3B. Briefly: Molecular glue activity at full length wild type CRBN/HiBit tagged GSPT2 in human Jurkat cells harbouring wildtype CRBN assessed as induction of GSPT2 degradation at 0.1 to 10 uM incubated for 6 hrs by Western blot analysis. The series is classed as cell-based. The conditions noted are these: dose 0.1-10 µM.
Target sequence in this assay (Q8IYD1 whole entry, looked up): as the sequence (Q8IYD1 whole entry, looked up) above
Target sequence in this assay (Q96SW2 whole entry, looked up): as the sequence (Q96SW2 whole entry) above

Series [30] has the same target. The experiment in a line: Molecular glue activity at full length wild type CRBN/HiBit tagged GSPT2 in human Jurkat cells harbouring CRBN knockout assessed as induction of GSPT2 degradation at 0.1 to 10 uM incubated for 6 hrs by Western blot analysis. The conditions noted are these: dose 0.1-10 µM. The class given is cell-based.
Target sequence in this assay (Q8IYD1 whole entry, looked up): as the sequence (Q8IYD1 whole entry, looked up) above
Target sequence in this assay (Q96SW2 whole entry, looked up): as the sequence (Q96SW2 whole entry) above
Series [31] concerns the target T1, Protein cereblon/Eukaryotic peptide chain release factor GTP-binding subunit ERF3A. Briefly: Molecular glue activity at human full length wildtype CRBN/HiBiT tagged GSPT1 in human MIA PaCa-2 cells transfected with CRBN-TurboID-V5 assessed as ternary complex formation at 1 uM preincubated for 4 hrs followed by bortezomib addition and measured after 2 hrs by TurboID analysis. The series is classed as cell-based. The conditions noted are these: time 6.0 hrs.

The target in series [32] is T2, Protein cereblon/Eukaryotic peptide chain release factor GTP-binding subunit ERF3B. Briefly: Molecular glue activity at human full length wildtype CRBN/HiBiT tagged GSPT2 in human MIA PaCa-2 cells transfected with CRBN-TurboID-V5 assessed as ternary complex formation at 1 uM preincubated for 4 hrs followed by bortezomib addition and measured after 2 hrs by TurboID analysis. The class given is cell-based. The conditions noted are these: time 6.0 hrs.
Target sequence in this assay (Q8IYD1 whole entry, looked up): as the sequence (Q8IYD1 whole entry, looked up) above
Target sequence in this assay (Q96SW2 whole entry, looked up): as the sequence (Q96SW2 whole entry) above

Calls of active or inactive are those of the source. The rule behind the calls is not given here.

Sequence of Protein cereblon (Homo sapiens) (Q96SW2 whole entry): as above

As to `COC(=O)c1nc(NC(=O)Cn2cnc(C)c(C)c2=O)sc1Cc1ccccc1`, in series [1], the Activity is -5.6%. Also, the DC50 in [2] is > 10 µM.
Take `Cc1ccc(NC(=O)NCc2ccc3c(c2)CN(C2CCC(=O)NC2=O)C3=O)cc1Cl` (stereo unspecified): the EC50 in series [3] was 0.1 µM.
As for `COC(=O)c1nc(NC(=O)Cn2cnc(C)c(C)c2=O)sc1CCc1ccc(Cl)cc1`, in series [1], the result was inactive. For the same compound, the DC50 in [2] is > 10 µM.
The corresponding values for `COC(=O)c1nc(NC(=O)Cn2cnc3c(c2=O)CCC3)sc1CCc1ccccc1` are -14.4% and > 10 µM.
For `COC(=O)c1nc(NC(=O)Cn2cnc(C)cc2=O)sc1CCc1ccccc1` the same measures were “inactive” and > 10 µM.
Take `COC(=O)c1nc(NC(=O)Cn2cnccc2=O)sc1CCc1ccccc1`: the Activity in series [1] came to 13.8%. The DC50 in [2] was 4 µM.
The corresponding values for `COC(=O)c1nc(NC(=O)Cn2cncc(C)c2=O)sc1CCc1ccccc1` are “inactive” and > 10 µM.
With `CNC(=O)c1nc(NC(=O)Cn2cnc(C)c(C)c2=O)sc1CCc1ccccc1`, in series [1], the Activity is -9%. For the same compound, the DC50 in series [2] is > 10 µM.
Take `COC(=O)c1nc(NC(=O)Cn2cnc(C)c(C)c2=O)sc1CCc1ccccc1`: the EC50 in series [3] was determined as 11.4 µM. For the same compound, the GI50 at 72 h in [4] is 0.8 µM; in series [5] it was 18.4 µM; in [7], 1.4 µM. In addition, the GI50 turned out to be 0.5 µM with Jurkat [6] and 3.2 µM in the series with Jurkat [18]. The RatioGI50 (with MCF7; in [8]; in series [9]) was 3 in each case. The result in series [10], in [11], in series [12], in [13], in series [14] and in [26] was Active. The result in [27] and in series [29] was Active. In addition, the DC50 in series [15] came to 0.127 µM; in [16], 0.0422 µM; in series [22], 0.2 µM; in [23] it was 45 µM; in series [2], 1.2 µM. The outcome (in series [17]; in series [19]; in [20]; in the series on MEF; in series [28]; in series [30]) was inactive. Besides, the outcome in series [31] and in series [32] was inactive. Besides, the Activity result is “Dose-dependent-effect” in [21] and 47.6% in series [1]. The maximal response (Emax) in series [24] stood at 98.2%; in [25] it was 31.7%.
In the case of `COC(=O)c1nc(NC(=O)Cn2cnc(C)c(C)c2=O)sc1CCc1cccc(Cl)c1`, the outcome in series [1] was inactive. In addition, in series [2], the DC50 was > 10 µM.

As usually defined, the DC50 is the midpoint of the concentration-degradation curve. As usually defined, the EC50 is the midpoint of the concentration-response curve. The term GI50 denotes the concentration at which growth is held to half of that of the control. One may read the Emax as the greatest response seen or fitted, relative to the assay's reference.

These data come from ChEMBL document CHEMBL6182904, “Discovery of a novel molecular glue degrader targeting GSPT1/2 with a non-IMiD-based CRBN binder” (Eur J Med Chem, 2025).
